Source: PMC7069976, “Improved secretion of glycoproteins using an N-glycan-restricted passport sequence tag recognized by cargo receptor” (Nature Communications, 2020)

Assays:
Format in all cases: cell-based
HCT116 cells = assay: Intracellular accumulation, western blotting of cell lysates; conditions: anti-flag western blot, vs EPO-motif
Protocol: Western blots were performed according to methods in previous studies[29],[30]. At 72 h post transfection, the EPO and sFγRIII recombinant proteins were purified with anti-Flag M2 Affinity Gel (Sigma-Aldrich). The gel was washed twice with phosphate-buffered saline, and proteins were eluted with the 3× FLAG tag peptide (Sigma-Aldrich). The purified proteins were subjected to 3–10% gradient sodium dodecyl sulfate-polyacrylamide gel electrophoresis and subsequently transferred to a polyvinylidene difluoride membrane (Millipore, Billerica, MA). After blocking with Blocking One solution (Nacalai Tesque, Kyoto, Japan), the membranes were incubated with monoclonal mouse anti-Flag M2 (Sigma-Aldrich, F1804), anti-human LMAN1 (ERGIC-53) (Proteintech, Tokyo, Japan, 13364), anti-human SDNSF/MCFD2 (R&D System, Minneapolis, MN, MAB2357), and anti-β-actin (Sigma-Aldrich, A2228) antibodies, and then with horseradish peroxidase (HRP)-conjugated secondary antibody [anti-mouse IgG antibody-HRP, GE Healthcare (Piscataway, NJ) and anti-rabbit Ig antibody-HRP, Cell Signaling Technology (Danvers, MA)] in 20 mM Tris-HCl (pH 7.6) containing 150 mM NaCl and 0.05% Tween-20. The protein bands were visualized with Immobilon Western Chemiluminescent HRP substrate solution (Millipore).

HCT116 cells (WT) = assay: EPO secretion level (ELISA) from wild-type HCT116 cells; conditions: for EPO secretion level (Figure 4F): HCT116, alanine substitutions in motif
Source text: (§1) For expression of the FVIII and FV full-length and deletion mutant proteins in mammalian cells, the codon-optimized FVIII and FV genes were inserted into the p3XFLAG-CMV-14 Expression Vector and p3XFLAG-CMV-9 Expression Vector, respectively (Sigma-Aldrich, St. Louis, MO). For the expression of the wild-type and mutated AAT, EPO, and sFγRIIIa in mammalian cells, the corresponding genes (purchased from FASMAC Co., Ltd., Atsuki, Japan) were inserted into the p3XFLAG-CMV-9 Expression Vector (Sigma-Aldrich).
HCT116 and its mutated cells as well as HEK293T were maintained in Dulbecco’s modified Eagle’s medium (DMEM) supplemented with 10% fetal bovine serum in 5% CO2 at 37 °C. For complementary DNA (cDNA) transfection, cells were grown overnight and transfected using Polyethylenimine “Max” (Polysciences Inc.) as described previously. Expi293F cells (Thermo Fisher Scientific, Waltham, MA) were maintained in Expi293 Expression Medium (Thermo Fisher Scientific) in 5% CO2 at 37 °C on an orbital shaker platform rotating at 125 r.p.m. For cDNA transfection, cells were transfected with the ExpiFectamine 293 Transfection Kit (Thermo Fisher Scientific Inc.). Protein expression was performed in serum-free medium.
(§2) The secreted levels of FVIII and FV antigens in the culture medium were determined with an sandwich enzyme-linked immunosorbent assay (ELISA) method using the VisuLize FVIII Antigen Kit (Affinity Biologicals Inc., Ancaster, ON) and the Asssay Max™ Human Factor V ELISA Kit (ASSAYPRO, MO), respectively. The secreted levels of AAT and EPO antigens in the culture medium were determined with an ELASA method using the anti-AAT antibody (Agilent, Santa Clara, CA) and anti-Flag M2 antibody (Sigma-Aldrich), respectively.

ERGL KO HCT116 cells = assay: EPO secretion level (ELISA) from ERGL KO HCT116 cells
Source text: (§3) The guide RNAs (gRNAs) flanking the target enhancer regions for ERGIC-53 and MCFD2 were designed using ToolGen’s dRGEN synthesis service (Seoul, South Korea). The target DNA sequences of the gRNAs used in the present study were as follows: for MCFD2 deletion, […], and for ERGIC-53 deletion, […]. The gRNA expression plasmids (pRGEN-U6-sgRNA) were purchased from ToolGen. To generate the KO cells of MCFD2 or ERGIC-53, individual gRNA plasmids and a plasmid-expressing Cas9-green fluorescent protein (GFP) (Addgene, catalog #44719) were transiently transfected into HCT116 cells, which are diploid cells suitable for genome editing using the CRISPR/Cas9 method, in a six-well plate using polyethylenimine “Max” (Polysciences Inc., Warrington, PA) and a Cas9:gRNA molar ratio of 1:5 as described previously. At 48 h post transfection, cells with high GFP expression were identified using fluorescence-activated cell sorting with the BD FACSAria II cell sorter (BD Biosciences, San Jose, CA). For knocking out ERGL in the wild-type and ERGIC-53-KO cells, the Guide-it CRISPR/Cas9 System (green/red) (Takara Bio Inc., Kusatsu, Japan) was used for the cloning and expression of target single gRNAs, whose target ERGL DNA sequences were […] and […]. The two constructed pGuide-it Vectors (green and red) were transiently transfected into HCT116 cells. At 48 h post transfection, cells with high ZsGreen1 and tdTomato expression were identified using fluorescence-activated cell sorting. Sorted cells were plated into individual wells of a 96-well plate and then re-plated as single cells in 6 cm dishes. The deletions in the clones were confirmed by polymerase chain reaction and sequencing analysis (Supplementary Figs. 8, 9, 10, and 11).
as §1, with “(Sigma-Aldrich). […]” for “(Sigma-Aldrich).”
as §2

ΔMCFD2 HCT116 cells = assay: EPO secretion level (ELISA) from MCFD2 KO HCT116 cells
Source text: as §3
as §1, with “(Sigma-Aldrich). […]” for “(Sigma-Aldrich).”
as §2

[1] = average, n = 3, EPO in wild type = 1

Substance: EPO: recombinant Flag-tagged erythropoietin without motif (Fig. 5 prints EPO for mScarlet-I-EPO)
- intracellular accumulation (HCT116 cells): a higher level of accumulation in the cells
- EPO secretion level (Figure 4E), average (HCT116 cells (WT); HCT116, N-glycan-deficient mutants, Average, EPO = 1): 1
- EPO secretion level (Figure 4E) (HCT116 cells (WT); HCT116, N-glycan-deficient mutants, replicate 1): 1.0366
- EPO secretion level (Figure 4E) (HCT116 cells (WT); HCT116, N-glycan-deficient mutants, replicate 2): 1.006
- EPO secretion level (Figure 4E) (HCT116 cells (WT); HCT116, N-glycan-deficient mutants, replicate 3): 0.9333
- EPO secretion level (Figure 4E) (HCT116 cells (WT); HCT116, N-glycan-deficient mutants, replicate 4): 1.024
- EPO secretion level (Figure 4F), average (HCT116 cells (WT); HCT116, alanine substitutions in C-terminal motif, Average, n = 3, EPO = 1): 1
- EPO secretion level (Figure 4F) (HCT116 cells (WT); replicate 1): 1.027
- EPO secretion level (Figure 4F) (HCT116 cells (WT); replicate 2): 1.0473
- EPO secretion level (Figure 4F) (HCT116 cells (WT); replicate 3): 0.9257
- EPO secretion level (Figure 4C), average (HCT116 cells (WT); HCT116, motif position series, average, n = 3 independent transfections, Flag-EPO average = 1): 1
- EPO secretion level (Figure 4C) (HCT116 cells (WT); HCT116, motif position series, replicate 1): 1.0819
- EPO secretion level (Figure 4C) (HCT116 cells (WT); HCT116, motif position series, replicate 2): 0.9754
- EPO secretion level (Figure 4C) (HCT116 cells (WT); HCT116, motif position series, replicate 3): 0.9427
- EPO secretion level (Figure 4D), average (HCT116 cells (WT); Wild type HCT116, KO series, average, n = 3, EPO in wild type = 1): 1
- EPO secretion level (Figure 4D) (HCT116 cells (WT); Wild type HCT116, KO series, replicate 1): 0.9075
- EPO secretion level (Figure 4D) (HCT116 cells (WT); Wild type HCT116, KO series, replicate 2): 1.011
- EPO secretion level (Figure 4D) (HCT116 cells (WT); Wild type HCT116, KO series, replicate 3): 1.081
- EPO secretion level (Figure 4D), average (ERGL KO HCT116 cells; [1]): 0.7808
- EPO secretion level (Figure 4D) (ERGL KO HCT116 cells; replicate 1): 0.6104
- EPO secretion level (Figure 4D) (ERGL KO HCT116 cells; replicate 2): 0.9026
- EPO secretion level (Figure 4D) (ERGL KO HCT116 cells; replicate 3): 0.8293
- EPO secretion level (Figure 4D), average (ΔMCFD2 HCT116 cells; [1]): 0.9208
- EPO secretion level (Figure 4D) (ΔMCFD2 HCT116 cells; replicate 1): 0.5997
- EPO secretion level (Figure 4D) (ΔMCFD2 HCT116 cells; replicate 2): 1.0013
- EPO secretion level (Figure 4D) (ΔMCFD2 HCT116 cells; replicate 3): 1.162
